This is an account of results in publication PMC3774141 (Bioorganic & medicinal chemistry letters, 2013).

Bounds are passed on as bounds.

The test system of assay [1] is human non-small-cell lung carcinoma (A549). The following applies: read-out: IC50 A549; values taken from the literature for comparison; cited from earlier work.
For assay [2], the system named is breast adenocarcinoma (MCF-7). The following applies: read-out: IC50 MCF-7; values taken from the literature for comparison; cited from earlier work.
The test system of assay [3] is human cervix carcinoma (HeLa). The note with it: read-out: IC50 HeLa; values taken from the literature for comparison; cited from earlier work.
In assay [4] the test system is human cancer cell lines (HeLa, A549, H1299, MCF-7). In words: antiproliferative activity, cancer cell lines tested. The class given is cell-based. The note with it: read-out: IC50 against the cancer cell lines tested.
Another assay relates to tubulin. In words: inhibition of tubulin polymerization. The class given is biochemical.

With `COc1ccc(-c2nnnn2-c2cc(OC)c(OC)c(OC)c2)cc1` [Compound 5f], the 50% inhibitory concentration (IC50) in assay [1] was 222 ± 59 nM; in assay [2], 38.5 ± 5.8 nM; in assay [3] it was 2.6 nM.

Consider `COc1ccc(-c2nnnn2-c2cc(OC)c(OC)c(OC)c2O)cc1` [Compound 5b], for which the concentration for half-maximal inhibition (IC50) in assay [4] is greater than 45000 nM. Moreover, the “inhibitors of tubulin polymerization (result in words)” value in the assay with tubulin was “inactive”.

Turning to `COc1ccc(-c2nnnn2-c2cc(OC)c(OC)c(OC)c2O)c(O)c1` [Compound 5a], the concentration for half-maximal inhibition (IC50) in assay [4] was greater than 45000 nM. For the same molecule, in the assay with tubulin, the “inhibitors of tubulin polymerization (result in words)” value was “inactive”.

Usually IC50 stands for the point on the concentration scale where inhibition reaches its midpoint.
